The source of these data is patent US20200171030A1, “DUAL INHIBITORS OF ALK5 AND P38A MAP KINASE” (INTEGRAL BIOSCIENCES PRIVATE LIMITED, priority 2018, published 2020).

One experiment deals with T1, MAPK14/p38α kinase (Homo sapiens, UniProt Q16539).
T1 construct: purchased ThermoFisher PV3304
Kind of experiment: MAPK14/p38α kinase assay (LanthaScreen TR-FRET). It counts as biochemical. The note with it: for IC50: Table 3, read-out: IC50 (P38 alpha). On the procedure: MAPK14/p38α Kinase Assay for IC50 Determination:
IC50 values of compounds against MAPK14/P38α kinase were determined by Lanthascreen based TR-FRET assay. Kinase reactions were performed in a 10 μL volume in low-volume 384-well plates. The concentration of substrate was maintained at 400 nM in the assay, and the kinase reaction buffer (1×; Cat # PV3189, ThermoFisher) consisted of 50 mM HEPES pH 7.5, 0.01% BRIJ-35, 10 mM MgCl2, and 1 mM EGTA. Serially diluted compounds (3-fold) in DMSO (0.5% in final reaction) were incubated with cocktail of MAPK14/p38α kinase (20 ng/ml; Cat # PV3304, ThermoFisher), Substrate GFP-ATF2 (19-96), (0.4 μM; Cat # PV4445, ThermoFisher), ATP (90 μM; Cat # PV3227, ThermoFisher) and buffer. Kinase reactions were allowed to proceed for 1 hour at room temperature before EDTA (10 mM; Cat # P2825, ThermoFisher) and LanthaScreen™ Tb-antipATF2 (pThr71) Antibody (2 nM; Cat # PV4451, ThermoFisher) in TR-FRET dilution buffer (IX; Cat # PV3574, ThermoFisher) were added. The plate was allowed to incubate at room temperature for 30 minutes before being read on a BMG Pherastar plate reader using the LanthaScreen™ filter block for LanthaScreen™ TR-FRET.
The resulting TR-FRET emission ratio was plotted against the concentration of inhibitor, and the data was fit to a sigmoidal dose-response curve with a variable slope. The IC50 for the inhibitor was calculated from the curve.

Another experiment relates to Panc-1. The experiment in a line: Cell viability assay (resazurin, 96 hr) in Panc-1. The class given is cell-based. The note with it: Homo sapiens; Panc-1 pancreatic cell line, 96 hr exposure; read-out: Panc-1_Cell Viability_IC50. The method, then: (§1) Cell Viability Assay in MIA PaCa-2 and Panc-1
(§2) MIA PaCa-2 (ATCC® CRL-1420™) and Panc-1 (CRL-1469™), both pancreatic cell lines were seeded in their respective medium (DMEM, Cat #10569044 with 10% FBS, Cat #16000044; Gibco for Panc-1 and an additional 2.5% Horse Serum, Cat #16050122; Gibco for MIA PaCa-2) at a cell count of 3000 cells per 100 μl per well in a 96 well edge plate (167425; ThermoFisher). Cells were allowed to grow at 37° C. for 24 hr in 5% CO2 (culture conditions) in a Nuaire incubator (humidified). Serially diluted compounds (100 μl) were added to the culture plate 24 hr later and the cultures (MIA PaCa-2 and Panc-1) were further incubated in culture conditions for 96 hr. Experiment was terminated at the completion of 96 hr exposure to the drug by replacing the medium with 100 μl of 1 mM of resazurin (R7017; Sigma) prepared in culture medium and the plates were further incubated in culture conditions for 4 hr. Fluorescence was then measured using a multimodal plate reader (Biotek Synergy Neo) at an excitation wavelength of 535 nm and emission wavelength of 590 nm to obtain relative fluorescence units. Data analysis was done by subtracting the background fluorescence (only medium blank) value from each reading and then normalizing with the vehicle control (DMSO treated cells) to obtain percent survival/proliferation. Percent survival at different doses was used to calculate IC50 by fitting the curve to the “four-parameter variable slope logistic model” using Prism Graph Pad.

For the next experiment, the system named is MIA PaCa-2. Kind of experiment: Cell viability assay (resazurin, 96 hr) in MIA PaCa-2. The note with it: Homo sapiens; MIA PaCa-2 pancreatic cell line, 96 hr exposure; read-out: MiaPaCa-2_Cell Viability_IC50. The class given is cell-based. The method, then: as §1, §2
The next experiment addresses T2, TGFBR1 (ALK5) (Homo sapiens, UniProt P36897).
T2 sequence (P36897 34-503): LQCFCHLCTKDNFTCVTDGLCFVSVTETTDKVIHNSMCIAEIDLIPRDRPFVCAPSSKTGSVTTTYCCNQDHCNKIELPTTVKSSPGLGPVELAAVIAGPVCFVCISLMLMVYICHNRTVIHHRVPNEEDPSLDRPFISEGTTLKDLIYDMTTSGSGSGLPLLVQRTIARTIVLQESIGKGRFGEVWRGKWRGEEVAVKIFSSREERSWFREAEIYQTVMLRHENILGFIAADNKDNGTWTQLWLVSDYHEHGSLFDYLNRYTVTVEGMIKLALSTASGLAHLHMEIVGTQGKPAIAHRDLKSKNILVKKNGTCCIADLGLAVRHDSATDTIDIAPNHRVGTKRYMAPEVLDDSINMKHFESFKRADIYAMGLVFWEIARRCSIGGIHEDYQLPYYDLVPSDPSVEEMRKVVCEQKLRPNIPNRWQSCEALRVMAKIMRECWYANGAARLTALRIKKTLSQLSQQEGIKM
The experiment in a line: ALK5 kinase assay (LanthaScreen Terbium labeled TR-FRET). The class given is biochemical. The note with it: for IC50: Table 3, read-out: IC50 (ALK5). On the procedure:
ALK5 Kinase Assay for IC50 Determination:
IC50 values of compounds against TGFβ kinase was determined by LanthaScreen™ Terbium Labeled TR-FRET assay. Kinase assays were performed in IX kinase buffer (# PV6135, Invitrogen, Life Technologies Grand Island, N.Y.) where total reaction volume was 10 μL in low-volume 384-well plates (#4511,Corning). Serially diluted compounds (3-fold) were incubated with TGFβ kinase (6 nM) for 10 min, following which a mixture of ATP (10 μM) (# A1852, Sigma, St-Louis, Mo.) and fluorescent-PolyGT substrate (200 nM) (# PV3610, Invitrogen, Life Technologies Grand Island, N.Y.) was added and incubated in dark at room temperature for 1 h. After 1 h, 10 μL stop solution containing Terbium labeled antibody (4 nM) (# PV3529, Invitrogen, Life Technologies Grand Island, N.Y.) and EDTA (# E5134, Sigma, St-Louis, Mo.) (20 mM) in TR-FRET dilution buffer (# PV3574, Invitrogen, Life Technologies Grand Island, N.Y.) was added. Readings were taken in a Synergy Neo Plate reader (BioTek, Winooski) at single excitation of 340 nm and Dual emission at 495 nm and 520 nm respectively.
The % activity of test samples was calculated as (Sample−Min)×100/(Max−Min). [Max: DMSO control, complete reaction with enzyme with DMSO and Min: No enzyme with DMSO]. Percent inhibition (100-% activity) was fitted to the “four-parameter logistic model” in XLfit for determination of IC50 values.
For orientation: In TR-FRET formats the signal depends on donor and acceptor labels being close together.

Where a name gives a salt, the structure may show the parent alone. Bounds are passed on as bounds.

T1 sequence (Q16539 whole entry): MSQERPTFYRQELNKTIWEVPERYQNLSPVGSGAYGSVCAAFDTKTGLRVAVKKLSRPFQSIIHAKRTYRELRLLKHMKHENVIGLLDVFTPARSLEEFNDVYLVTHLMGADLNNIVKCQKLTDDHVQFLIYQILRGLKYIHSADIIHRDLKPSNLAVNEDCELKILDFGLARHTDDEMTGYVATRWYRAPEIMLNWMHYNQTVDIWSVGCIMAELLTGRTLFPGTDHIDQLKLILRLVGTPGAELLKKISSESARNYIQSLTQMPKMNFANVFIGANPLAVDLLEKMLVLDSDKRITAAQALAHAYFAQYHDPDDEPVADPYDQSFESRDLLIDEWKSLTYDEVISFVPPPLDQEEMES

In the case of `CC(C)c1cnc(-c2ccc(F)cc2)nc1Nc1ccnc2[nH]cc(C(=O)C(=O)N3CCNCC3)c12` [Compound No. 23, 1-(4-(2-(4-fluorophenyl)-5-isopropylpyrimidin-4-ylamino)-1H-pyrrolo [2,3-b]pyridin-3-yl)-2-(piperazin-1-yl) ethane-1,2-dione hydrochloride], the IC50 at MAPK14/p38α kinase was 1.3 µM; with Panc-1 it was 5.85 µM; in the experiment on MIA PaCa-2 it was 1.14 µM; at TGFBR1 (ALK5), 0.671 µM.
Regarding `CC(C)c1cnc(-c2ccc(F)cc2)nc1Nc1ccnc2[nH]cc(C(=O)C(N)=O)c12` [Compound No. 17, 2-(4-((2-(4-fluorophenyl)-5-isopropylpyrimidin-4-yl)amino)-1H-pyrrolo[2,3-b]pyridin-3-yl)-2-oxoacetamide hydrochloride], the IC50 at MAPK14/p38α kinase is 0.309 µM; in the experiment with Panc-1, greater than 30 µM; in the experiment on MIA PaCa-2 it was 0.765 µM; at TGFBR1 (ALK5), greater than 5 µM.
What is called inhibition is the relative decrease from the control value, in per cent. As for `CC(C)c1cnc(-c2ccc(F)cc2)nc1Nc1ccnc2[nH]cc(N3CCN(C)CC3)c12` [Compound No. 2, N-(2-(4-fluorophenyl)-5-isopropylpyrimidin-4-yl)-3-(4-methylpiperazin-1-yl)-1H-pyrrolo [2,3-b] pyridin-4-amine hydrochloride], the inhibition at 0.1 µM on MAPK14/p38α kinase (100 nM concentration of compound, read-out: Enzyme Activity MAPK14 (p38 alpha) % Inhibition at 100 nM) was determined as 19%; on TGFBR1 (ALK5) (100 nM concentration of compound, read-out: Enzyme Activity TGFBR1 (ALK5) % Inhibition at 100 nM) it was 84%. For the same compound, the IC50 with Panc-1 was 2.21 µM; with MIA PaCa-2 it was 7.7 µM.
Regarding `CC(C)c1cnc(-c2ccc(F)cc2)nc1Nc1ccnc2[nH]cc(N3CCNC[C@@H]3C)c12` [Compound No. 7, N-(2-(4-fluorophenyl)-5-isopropylpyrimidin-4-yl)-3-(2-methylpiperazin-1-yl)-1H-pyrrolo [2,3-b] pyridin-4-amine hydrochloride], the IC50 on MAPK14/p38α kinase is 0.042 µM; with Panc-1, 2.69 µM; with MIA PaCa-2 it was 2.44 µM; at TGFBR1 (ALK5) it was 0.155 µM.
